Values after ≈ are worked out from the molar mass of the structure shown.
Assays:
[1] = tested on: voltage-dependent Ca^2+ channels; experiment: Ca2+ concentration-response curves in Ca2+-free medium, rabbit jejunum; conditions: Ca^2+-free medium, Sarcorucinine-D 10–30 µg/mL, verapamil 0.05–0.5 µg/mL
Experimental: Another set of confirmatory experiments was also performed to be sure of any potential CCB activity. For this, the regular Tyrode’s physiological salt solution in which the tissues were originally immersed was removed. The baths were filled with a Ca^2+–free Tyrode’s solution with EDTA (0.1 mM). The tissues were left in this solution for half an hour. Later, another replacement was carried out using K^+-rich and Ca^2+-free Tyrode’s solution. The tissues were again left to stabilize for half an hour, and then, the control concentration–response curves of Ca^2+ were constructed and recorded. These control Ca^2+ concentration–response curves were duplicated after pretreatment of the tissues for one hour with different concentrations of Sarcorucinine-D. Any possible CCB effect of Sarcorucinine-D would tend to displace the Ca^2+ concentration–response curves to the right-hand side. The effects of Sarcorucinine-D were compared to those of a standard CCB, verapamil.

urease = experiment: Selectivity screen: urease inhibition; format: biochemical
β-glucuronidase = experiment: Selectivity screen: β-glucuronidase inhibition; format: biochemical
[2] = target: T1, Torpedo californica AChE (TcAChE) (Tetronarce californica, UniProt P04058); experiment: biochemical; conditions: mean ± SEM of three experiments
T1 construct: purchased Sigma-Aldrich Corporation
Experimental: (§1) The enzyme activity was measured in vitro via a modified spectrophotometric method developed by Ellman et al.. Acetylthiocholine iodide (ATCh) and butyrylthiocholine chloride (BTCh) were used as substrates for the AChE and BChE enzymes, respectively. Ellman reagent, i.e., 5,5-dithiobis (2-nitro) benzoic acid (DTNB), was used to produce the chromogenic indicator for the measurement of the ChE activity using a SpectraMax microplate spectrophotometer (Molecular Devices, CA, USA), as reported previously.
(§2) The IC50 values were calculated using the EZ-Fit program (Perrella Scientific Inc., Amherst, MA, USA). Lineweaver–Burk plots, Dixon plots, and their secondary replots were used to observe the effects of the compound on the values of Km and Vmax. Dixon plots, Lineweaver–Burk plots, and the secondary replots of Lineweaver–Burk plots were used to determine Ki values using initial velocities. […] The graphical analysis of the Dixon plots, Lineweaver–Burk plots, and their secondary plots was used to determine the inhibition type.

BChE (horse serum) = target: T2, BChE (horse serum) (Equus caballus, UniProt P81908); experiment: biochemical; format: biochemical
T2 construct: purchased Sigma-Aldrich Corporation; host or cells: horse serum
Experimental: as §1, §2

α-glucosidase = tested on: α-glucosidase
Experimental: (§3) To test the selectivity of the compound, Sarcorucinine-D was also tested for the inhibition of several other enzymes such as phosphodiesterase, α-glucosidase, β-glucuronidase, and urease enzymes. The assays of these enzymes are reported elsewhere.

phosphodiesterase = tested on: phosphodiesterase
Experimental: as §3

MTT cytotoxicity test = conditions: bovine, MDBK adherent cells
Experimental: (§4) The MTT (3-[4,5-dimethylthazol-2-yl]-2,5-diphenyltetrazolium bromide) test was performed using MDBK adherent cells.

MDBK cells = experiment: MTT cytotoxicity test; conditions: MDBK, MTT, concentration range 0.019–1.56 μg/mL, 72 h
Experimental: as §4

T2 sequence (P81908 whole entry): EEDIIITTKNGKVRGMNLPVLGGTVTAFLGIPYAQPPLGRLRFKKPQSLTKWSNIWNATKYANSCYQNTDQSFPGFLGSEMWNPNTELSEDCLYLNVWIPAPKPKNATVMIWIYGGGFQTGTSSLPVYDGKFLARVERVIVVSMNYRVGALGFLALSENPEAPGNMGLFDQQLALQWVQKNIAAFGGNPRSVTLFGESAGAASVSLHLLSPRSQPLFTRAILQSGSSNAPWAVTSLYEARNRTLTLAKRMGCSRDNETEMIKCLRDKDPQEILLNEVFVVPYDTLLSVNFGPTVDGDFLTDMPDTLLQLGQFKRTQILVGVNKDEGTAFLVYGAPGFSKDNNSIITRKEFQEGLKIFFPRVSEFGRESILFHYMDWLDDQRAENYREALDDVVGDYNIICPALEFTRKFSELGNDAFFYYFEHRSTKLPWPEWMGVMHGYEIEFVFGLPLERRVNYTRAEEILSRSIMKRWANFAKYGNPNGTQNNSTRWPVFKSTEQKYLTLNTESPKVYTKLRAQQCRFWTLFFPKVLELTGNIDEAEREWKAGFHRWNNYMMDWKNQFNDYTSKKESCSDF
T1 sequence (P04058 22-586): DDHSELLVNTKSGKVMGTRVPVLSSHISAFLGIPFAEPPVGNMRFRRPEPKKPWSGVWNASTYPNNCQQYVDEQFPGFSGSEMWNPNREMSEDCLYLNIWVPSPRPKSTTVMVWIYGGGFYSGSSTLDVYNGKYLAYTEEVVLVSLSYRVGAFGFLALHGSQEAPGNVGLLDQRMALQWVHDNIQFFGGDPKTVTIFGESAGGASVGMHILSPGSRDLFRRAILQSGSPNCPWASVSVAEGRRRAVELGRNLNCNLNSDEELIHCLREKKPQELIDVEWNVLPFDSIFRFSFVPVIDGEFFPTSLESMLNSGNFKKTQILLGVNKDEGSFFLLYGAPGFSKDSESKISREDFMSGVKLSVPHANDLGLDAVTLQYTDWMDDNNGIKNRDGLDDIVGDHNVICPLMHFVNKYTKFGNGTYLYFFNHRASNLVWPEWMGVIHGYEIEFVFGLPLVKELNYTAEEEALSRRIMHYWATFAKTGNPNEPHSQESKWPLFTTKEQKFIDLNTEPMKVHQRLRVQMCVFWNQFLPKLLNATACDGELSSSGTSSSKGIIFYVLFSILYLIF

| Compound | Effect on CaCl2 concentration–response curves [1] | Selectivity screen result, urease (urease) | Selectivity screen result, β-glucuronidase (β-glucuronidase) | Ki ([2]; from Dixon plot, Lineweaver–Burk plot and secondary replots, read-out: Acetylcholinesterase Ki) | IC50 ([2]; read-out: Acetylcholinesterase IC50) | IC50 (BChE (horse serum)) | Ki (BChE (horse serum)) | Selectivity toward BChE over AChE (BChE (horse serum); from the data of Table 1) | Selectivity screen result, α-glucosidase (α-glucosidase) | Selectivity screen result, phosphodiesterase (phosphodiesterase) | IC50 at 72 h (MTT cytotoxicity test) | Cytotoxic effect at low concentrations (MDBK cells) |
| --- | --- | --- | --- | --- | --- | --- | --- | --- | --- | --- | --- | --- |
| COc1ccc(CCN(C)CCCC(C#N)(c2ccc(OC)c(OC)c2)C(C)C)cc1OC (stereo not shown) [verapamil, reference compound] | displaced the CaCl2 curves to the right | – | – | – | – | – | – | – | – | – | – | – |
| CC(C1CCC2C3CCC4CC(O)CCC4(C)C3CCC21C)N(C)C (stereo not shown) [Sarcorucinine-D] | displaced the CaCl2 curves to the right | selective ChE inhibitor | selective ChE inhibitor | 103 ± 6.67 µM | 42.9 ± 3.13 µM | 8.87 ± 0.56 µM | 4.66 ± 0.3 µM | approximately 22 times | selective ChE inhibitor | selective ChE inhibitor | 2.24 mg/L (≈ 6.44 µM) | No cytotoxic effect |

Reference: publication PMC9182202 (Molecules, 2022)
